Columns and labels:
[1] = tested on: S. mansoni (Puerto Rican) worm pairs; assay: Egg laying by adult worm pairs (Puerto Rican strain); assay type: cell-based, Schistosoma mansoni; details: % of DMSO control
[2] = tested on: histone H3 / H4 acetylation in S. mansoni (Puerto Rican strain) worm pairs; assay: Western blot of histone and lysine acetylation in worm extracts; assay type: cell-based, Schistosoma mansoni; details: 10 μM, 48 h; histone-enriched fraction
[3] = tested on: adult S. mansoni (Puerto Rican strain) worm pairs; assay: microbe, parasite or virus in culture; details: Schistosoma mansoni, 24 h, read-out: mortality in adult worm pairs
hSirt2 = details: ref footnote b (reference number not given); cited from earlier work
[4] = tested on: S. mansoni newly transformed schistosomula (NTS), Liberian strain; assay: NTS (Liberian strain) in vitro viability assay; assay type: cell-based, Schistosoma mansoni; details: for percentage of reduction of NTS viability, 72 h: SD in brackets; for IC50: 72 h, Liberian strain
[5] = tested on: adult S. mansoni (Liberian strain) worm pairs; assay: Adult worm (Liberian strain) in vitro viability assay; assay type: cell-based, Schistosoma mansoni; details: for adult worms' percentage of viability reduction, 72 h: SD in brackets; for IC50: Schistosoma mansoni, 72 h, Liberian strain
[6] = MTT viability assay on BJ fibroblasts; details: human
SmSirt2 = SmSirt2 (Schistosoma mansoni, UniProt T1VXA1); assay: In vitro SmSirt2 inhibition assay, homogeneous fluorescence-based, ZMAL substrate; assay type: biochemical
Method: We first improved the synthetic method to obtain most of the BDFs analogues 1–12 (Figure ), and we tested them against recombinant SmSirt2 using a homogeneous, fluorescent-based in vitro assay with (Z)-(Ac)-Lys-7-amino-4-methylcoumarin (ZMAL) as the substrate.
The BDF4 compounds 1–12 were tested for their inhibitory activity against SmSirt2 using a fluorescence-based assay with ZMAL as the substrate. Their activity against hSirt2 has been previously reported. ,
For the screening of compounds 1–12, a homogeneous fluorescence-based assay previously described by some of us was used to determine SmSirt2 activity.

[7] = tested on: S. mansoni (Puerto Rican) worm pairs; assay: Worm pairing of adult worm pairs (Puerto Rican strain); assay type: cell-based, Schistosoma mansoni; details: % of DMSO control
[8] = tested on: adult S. mansoni (Puerto Rican strain) worm pairs; details: Puerto Rican strain; for lethality of adult worm pairs: 20 μM, by 72 h
in vitro = details: human
[9] = tested on: cytochrome c release in S. mansoni (Puerto Rican strain) worms; assay: Western blot of cytosolic cytochrome c in worm extracts; assay type: cell-based, Schistosoma mansoni; details: 25 μM, 48 h (legend of Figure 5)
Method: To determine if the Sirt2 inhibitors trigger apoptosis through the cytochrome c pathway, we examined cytochrome c release from mitochondria.
5 Effects of selected Sirt2 inhibitors on cytosolic cytochrome c expression. Representative immunoblots of cytosolic protein fractions extracted from S. mansoni adult worm pairs are shown. The worms were treated with the indicated Sirt2 inhibitors (10 μM) for 48 h. DMSO (vehicle), TSA (1 μM, 24 h), a HDAC pan-inhibitor, and salermide (Sal 25 μM, 48 h), a Sirt1/Sirt2 inhibitor, were used as controls. The α-tubulin signal was used for normalization. Quantitation of cytochrome c relative to the vehicle-treated sample is shown.
Ten pairs of adult parasites were treated with selected Sirt inhibitors for either 24 or 48 h at partially lethal and sublethal concentrations. The concentrations of compounds were chosen based on the viability curve. Positive controls in the experiments included TSA, a pan-HDAC inhibitor, and salermide, a hSirt1/2 inhibitor, while DMSO (vehicle) served as negative control. Parasites were lysed in a 0.5% Triton PBS buffer by strokes, and the lysates were then centrifuged to collect the soluble fractions (cytosol). The insoluble fractions were extracted with 0.25 N HCl at +4 °C for 18 h, followed by neutralization with 1/10 volume of 2 N NaOH. Samples were analyzed using 15% SDS-PAGE and Western blotting. […]

schistosomula = tested on: schistosomula; parameters: method as in not given; details: 48 h of treatment, 10–20 μM; ref not given; cited from earlier work

SmSirt2, sequence (T1VXA1 entry or part of it): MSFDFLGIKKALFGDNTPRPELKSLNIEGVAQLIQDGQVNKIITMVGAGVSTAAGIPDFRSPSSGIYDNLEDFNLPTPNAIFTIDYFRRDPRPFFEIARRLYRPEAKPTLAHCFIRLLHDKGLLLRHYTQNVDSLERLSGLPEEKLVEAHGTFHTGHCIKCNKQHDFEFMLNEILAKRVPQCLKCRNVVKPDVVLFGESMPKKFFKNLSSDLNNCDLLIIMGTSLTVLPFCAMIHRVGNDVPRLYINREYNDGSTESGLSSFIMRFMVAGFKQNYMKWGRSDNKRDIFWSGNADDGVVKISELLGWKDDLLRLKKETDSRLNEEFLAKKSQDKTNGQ

Compound | % egg laying ([1]; 1 μM, 24 h, single experiment) [%] | % egg laying ([1]; 1 μM, 48 h, single experiment) [%] | % egg laying ([1]; 1 μM, 72 h, single experiment) [%] | % egg laying ([1]; 10 μM, 24 h, SD in brackets) | % egg laying ([1]; 10 μM, 48 h, SD in brackets) | % egg laying ([1]; 10 μM, 72 h, SD in brackets) | % egg laying ([1]; 20 μM, 24 h, SD in brackets) | % egg laying ([1]; 20 μM, 48 h, SD in brackets) | acetylation of histone H3 (pan-acetylation) [2] | acetylation of histone H4 (pan-acetylation) [2] | mortality at 20 µM [3] [%] | IC50 (hSirt2) [nM] | percentage of reduction of NTS viability, 72 h ([4]; 0.1 μM) | percentage of reduction of NTS viability, 72 h ([4]; 1 μM) | percentage of reduction of NTS viability, 72 h ([4]; 10 μM) | percentage of reduction of NTS viability, 72 h ([4]; 20 μM) | IC50 [4] [nM] | IC50 ([4]; Schistosoma mansoni) [nM] | adult worms' percentage of viability reduction, 72 h ([5]; 20 μM) | IC50 [5] [nM] | other results
O=c1nc2oc3ccc4ccccc4c3cc-2c(=O)n1C1CCCCC1 [Compound 7, 10-Cyclohexyl-9H-benzo[5,6]chromeno[2,3-d]pyrimidine-9,11(10H)-dione] | 75 | 66 | 75 | 32 (4) % | 46 (6) % | 44 (10) % | 14 (12) % | 9 (8) % | increase in acetylation of histone H3 | but not histone H4 | 70 to 80 | 58500 ± 2900 | 43.8 (2.1) % | 67.7 (0) % | 100 (0) % | 100 (0) % | 210 | ~200 | 100 (0) % | 1240 | adult worms' percentage of viability reduction, 72 h ([5]; 1 μM): 23.9 (0) %; IC50 at 72 h [6]: 60000 nM; inhibition at 50 µM (SmSirt2): 24.6%; % worm pairing ([7]; 1 μM, 24 h, single experiment): 100%; % worm pairing ([7]; 1 μM, 48 h, single experiment): 100%; % worm pairing ([7]; 1 μM, 72 h, single experiment): 100%; % worm pairing ([7]; 10 μM, 24 h, SD in brackets): 100 (0) %; % worm pairing ([7]; 10 μM, 48 h, SD in brackets): 100 (0) %; % worm pairing ([7]; 10 μM, 72 h, SD in brackets): 100 (0) %; % worm pairing ([7]; 20 μM, 24 h, SD in brackets): 0 (0) %; % worm pairing ([7]; 20 μM, 48 h, SD in brackets): 0 (0) %; % worm pairing ([7]; 20 μM, 72 h, SD in brackets): 6 (11) %; lethality of adult worm pairs [8]: complete lethality
O=c1nc2oc3ccc4ccccc4c3cc-2c(=O)n1Cc1ccccc1 [Compound 9, 10-Benzyl-9H-benzo[5,6]chromeno[2,3-d]pyrimidine-9,11(10H)-dione] | 98 | 98 | 126 | 72 (74) % | 71 (36) % | 67 (28) % | 11 (7) % | 8 (5) % | increase in acetylation of histone H3 | but not histone H4 | 70 to 80 | 15900 ± 600 | 36 (2) % | 100 (0) % | 100 (0) % | 100 (0) % | 110 | ~100 | 61.2 (5.6) % | < 1000 | % egg laying ([1]; 20 μM, 72 h, SD in brackets): 7 (6) %; IC50 at 72 h [6]: 50600 nM; IC50 (SmSirt2; read-out: IC50 SmSirt2, ZMAL substrate): 7300 ± 500 nM; % worm pairing ([7]; 1 μM, 24 h, single experiment): 100%; % worm pairing ([7]; 1 μM, 48 h, single experiment): 100%; % worm pairing ([7]; 1 μM, 72 h, single experiment): 100%; % worm pairing ([7]; 10 μM, 24 h, SD in brackets): 80 (20) %; % worm pairing ([7]; 10 μM, 48 h, SD in brackets): 93 (11) %; % worm pairing ([7]; 10 μM, 72 h, SD in brackets): 100 (0) %; % worm pairing ([7]; 20 μM, 24 h, SD in brackets): 6 (11) %; % worm pairing ([7]; 20 μM, 48 h, SD in brackets): 20 (30) %; % worm pairing ([7]; 20 μM, 72 h, SD in brackets): 20 (30) %; lethality of adult worm pairs [8]: complete lethality
CC(C)=CCC[C@]1(C)C=Cc2c(O)c3c(c(CC=C(C)C)c2O1)O[C@]12C(=C[C@@H]4C[C@H]1C(C)(C)O[C@@]2(C/C=C(/C)C(=O)O)C4=O)C3=O [GA, gambogic acid] |  |  |  |  |  |  |  |  |  |  |  |  |  |  |  |  |  |  |  |  | IC50 at 72 h (in vitro): 340 nM
CC(C(=O)Nc1cccc(/N=C/c2c(O)ccc3ccccc23)c1)c1ccccc1 (stereo not shown) [salermide] |  |  |  |  |  |  |  |  |  |  |  |  |  |  |  |  |  |  |  |  | cytosolic cytochrome c level [9]: increased levels of cytochrome c; DNA fragmentation in schistosomula (TUNEL assay) (schistosomula): cause DNA fragmentation; effect on adult worm viability ([8]; after 72 h, same conditions): did not affect adult worm viability

Reference: article PMC12624727, “Benzodeazaoxaflavin Sirtuin Inhibitors Inhibit Schistosoma mansoni Sirt2 and Cause Phenotypic Changes and Lethality in Schistosomula and Adult Worm Stages” (ACS Infectious Diseases, 2025)
